These are literature values, as cited in patent US20070232685A1, “CRYSTALLINE FORMS OF N-(BENZO[B]THIEN-3-YLMETHYL)-SULFAMIDE” (priority 2006, published 2007).

The test system of this data set is carbonic anhydrase. The note with it: background statement on a known anticonvulsant; no method given.

For `CC1(C)O[C@@H]2[C@@H](CO[C@@]3(COS(N)(=O)=O)OC(C)(C)O[C@@H]23)O1` [Topiramate], the carbonic anhydrase inhibition entry was “single digit micromolar”.
